Measured values published in PubChem BioAssay AID1963853 (Molecular Pharmacology Branch, DTP, NCI, 2024).
Where “and” joins values, the source holds several entries; their conditions need not be identical. Equal values may be shown once.

System: 266295-075-R-J1-PDC spheroid viability
Assay: Anticancer human tumor 266295-075-R-J1-PDC patient-derived head and neck squamous carcinoma cell line growth inhibition [POLQ]
Conditions: spheroids with HUVEC and MSC; for viability, T/C: stronger effect = lower value
Method: Multicellular complex tumor spheroid response to Polymerase (POL) inhibitors (novobiocin, ART-558, RP6685) in combination with a variety of drugs and investigational agents in selected tumor cell lines
The POL inhibitors (novobiocin, ART-558, and RP6685) were evaluated both individually and in combination with standard of care and investigational anticancer small molecules within a complex spheroid model of solid tumors. . Complex spheroids include a stromal component modeled by human endothelial cells (HUVEC) and fibroblasts modeled by human mesenchymal stem cells (MSCs). The concentration ranges selected for each drug and investigational agent were based upon clinically achievable concentrations if the clinical Cmax of the agent was known.
Compounds. The drugs and investigational agents: novobiocin (NSC847541), ART-558 (NSC835418), RP-6685 (NSC848927), peposertib (NSC802822), ceralasertib (NSC780249), elimusertib (NSC800525), camonsertib (NSC841442), AZD-1390 (NSC803789), olaparib (NSC753686), talazoparib (NSC767125), rucaparib (NSC756644), sotorasib (NSC818433), MRTX-1133 (NSC836407), SN-38 (NSC673596), topotecan (NSC609699), epotoside (NSC141540), doxorubicin (NSC123127), gemcitabine (NSC613327), 5-fluorouracil (NSC19893), paclitaxel (NSC125973), vemurafenib (NSC761431), MSA-2 (NSC828583), SN-011 (NSC837082), adavosertib (NSC754352), prexasertib (NSC758257), carboplatin (NSC241240) and oxaliplatin (NSC266046), were obtained from the National Cancer Institute (NCI) Developmental Therapeutics Program Chemical Repository (21). The FDA-approved anticancer drug set is available from the Developmental Therapeutics Program at https://dtp.cancer.gov/organization/dscb/obtaining/. […] The stock solutions were prepared in dimethyl sulfoxide (DMSO, Sigma-Aldrich, St. Louis, MO, cat. D2650), except for the platinum compounds which were prepared in saline (Quality Biological, Gaithersburg, MD, cat. 114-055-101), at 800-fold the tested concentration and stored at -70 degrees C prior to their use. All drugs and investigational agents were tested over a range starting from a high concentration at or near the clinical Cmax and decreasing in half-log increments. If the clinical Cmax for an agent had not been determined, the highest concentration tested was 10 microM, except for SN-38, which was tested at a high concentration of 1 microM.
Cell Culture. All cells were maintained in an incubator at 37 degrees C and 5% CO2 with 95% humidity. The PDC lines were cultured according to standard operating procedures established by the NCI PDMR (https://pdmr.cancer.gov). Table 3 of the manuscript, lists the cell lines along with the number of the three cell types plated to form the mct-spheroids and media for tumor cell growth. After thawing, all PDC lines, except 997537-175-T-J1-PDC and 415267-285-R-J2-PDC, were cultured in Matrigel-coated flasks prepared with a working solution of 1X Ham's F-12 nutrient mix, without supplementation (Thermo Fisher Scientific, cat. 11765054), 100 U/mL penicillin-streptomycin (Thermo Fisher Scientific, cat. 15140122), and 2.5% Matrigel (Corning Inc., Corning, NY, cat. 354248) for the first three passages. The two PDC lines 997537-175-T-J1-PDC and 415267-285-R-J2-PDC were cultured on uncoated flasks. The 857933-349-R-J2-PDC line was cultured in 6C/Colon 1B media containing advanced DMEM/F-12 (Thermo Fisher Scientific, cat. 12634028), 10 mM HEPES (Thermo Fisher Scientific, cat. 15630080), 1X GlutaMAX supplement (Thermo Fisher Scientific, cat. 35050061), 0.1 mg/mL primocin (InvivoGen, San Diego, CA, cat. ant-pm-2), 10% defined fetal bovine serum, heat inactivated (HyClone Laboratories Inc., Logan, UT, cat. SH30070.03HI), 50% L-WRN conditioned media (ATCC, cat. CRL-3276), 1.25 mM N-Acetyl-L-cysteine (Sigma-Aldrich, cat. A9165), 10 mM nicotinamide (Sigma-Aldrich, cat. N0636), 1X B-27 supplement (Thermo Fisher Scientific, cat. 17504044), 1X N-2 supplement (Thermo Fisher Scientific, cat. […]
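Also: spheroids exposed to compounds for seven days before readout.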

CCc1cc2c(N3CCc4c(cc(Cn5ccnc5)cc4-c4cn(C)nc4C(F)(F)F)C3=O)ccnc2c(OC)n1 + Cc1cccc(N(C)C(=O)C2C(O)CCN2c2nc(C)cc(C(F)(F)F)c2C#N)c1
IC50 (curve of first compound, second compound 0.0316 µM): > 10 µM | IC50 (curve of first compound, second compound 0.1 µM): > 10 µM | IC50 (curve of first compound, second compound 0.316 µM): > 10 µM | IC50 (curve of first compound, second compound 1 µM): > 10 µM | IC50 (curve of first compound, second compound 3.16 µM): > 10 µM | IC50 (curve of first compound, second compound 10 µM): > 10 µM | viability, T/C (second compound 0.0316 µM, first compound 0.0316 µM): 90.4% | viability, T/C (second compound 0.0316 µM, first compound 0.1 µM): 101% | viability, T/C (second compound 0.0316 µM, first compound 0.316 µM): 78.6% | viability, T/C (second compound 0.0316 µM, first compound 1 µM): 115% | viability, T/C (second compound 0.0316 µM, first compound 3.16 µM): 138% | viability, T/C (second compound 0.0316 µM, first compound 10 µM): 126% | viability, T/C (second compound 0.1 µM, first compound 0.0316 µM): 98.6% | viability, T/C (second compound 0.1 µM, first compound 0.1 µM): 90% | viability, T/C (second compound 0.1 µM, first compound 0.316 µM): 105% | viability, T/C (second compound 0.1 µM, first compound 1 µM): 99.6% | viability, T/C (second compound 0.1 µM, first compound 3.16 µM): 119% | viability, T/C (second compound 0.1 µM, first compound 10 µM): 124% | viability, T/C (second compound 0.316 µM, first compound 0.0316 µM): 119% | viability, T/C (second compound 0.316 µM, first compound 0.1 µM): 102% | viability, T/C (second compound 0.316 µM, first compound 0.316 µM): 80.3% | viability, T/C (second compound 0.316 µM, first compound 1 µM): 92.8% | viability, T/C (second compound 0.316 µM, first compound 3.16 µM): 130% | viability, T/C (second compound 0.316 µM, first compound 10 µM): 104% | viability, T/C (second compound 1 µM, first compound 0.0316 µM): 86.7% | viability, T/C (second compound 1 µM, first compound 0.1 µM): 105% | viability, T/C (second compound 1 µM, first compound 0.316 µM): 90.6% | viability, T/C (second compound 1 µM, first compound 1 µM): 110% | viability, T/C (second compound 1 µM, first compound 3.16 µM): 141% | viability, T/C (second compound 1 µM, first compound 10 µM): 104% | viability, T/C (second compound 3.16 µM, first compound 0.0316 µM): 107% | viability, T/C (second compound 3.16 µM, first compound 0.1 µM): 82.1% | viability, T/C (second compound 3.16 µM, first compound 0.316 µM): 104% | viability, T/C (second compound 3.16 µM, first compound 1 µM): 103% | viability, T/C (second compound 3.16 µM, first compound 3.16 µM): 122% | viability, T/C (second compound 3.16 µM, first compound 10 µM): 118% | viability, T/C (second compound 10 µM, first compound 0.0316 µM): 97.8% | viability, T/C (second compound 10 µM, first compound 0.1 µM): 90.6% | viability, T/C (second compound 10 µM, first compound 0.316 µM): 110% | viability, T/C (second compound 10 µM, first compound 1 µM): 132% | viability, T/C (second compound 10 µM, first compound 3.16 µM): 127% | viability, T/C (second compound 10 µM, first compound 10 µM): 144%

CC(C)n1c(=O)n(C)c2cnc3cc(F)c(-c4ccc(OCCCN5CCCCC5)nc4)cc3c21
viability, T/C (compound 0.0316 µM): 127% and 94.5% and 93.5% | viability, T/C (compound 0.1 µM): 74.1% and 94.9% and 97.8% | viability, T/C (compound 0.316 µM): 107% and 111% and 96.5% | viability, T/C (compound 1 µM): 100% and 92.8% and 103% | viability, T/C (compound 3.16 µM): 89.6% and 91.6% and 94.1% | viability, T/C (compound 10 µM): 70.6% and 64.5% and 76.9% | IC50 (curve of compound): > 10 µM

C=CC(=O)N1CCN(c2nc(=O)n(-c3c(C)ccnc3C(C)C)c3nc(-c4c(O)cccc4F)c(F)cc23)C(C)C1 (stereo not given)
viability, T/C (compound 0.0316 µM): 85.8% and 77.5% and 104% | viability, T/C (compound 0.1 µM): 98.6% and 98% and 100% | viability, T/C (compound 0.316 µM): 100% and 98.1% and 101% | viability, T/C (compound 1 µM): 104% and 95.8% and 112% | viability, T/C (compound 3.16 µM): 120% and 102% and 128% | viability, T/C (compound 10 µM): 110% and 129% and 93.2% | IC50 (curve of compound): > 10 µM

CCc1cc2c(N3CCc4c(cc(Cn5ccnc5)cc4-c4cn(C)nc4C(F)(F)F)C3=O)ccnc2c(OC)n1
viability, T/C (compound 0.0316 µM): 90% and 97.3% and 94% | viability, T/C (compound 0.1 µM): 86.8% and 96.2% and 103% | viability, T/C (compound 0.316 µM): 93.4% and 103% and 122% | viability, T/C (compound 1 µM): 106% (2×) and 117% | viability, T/C (compound 3.16 µM): 125% and 145% and 137% | viability, T/C (compound 10 µM): 126% and 117% and 140% | IC50 (curve of compound): > 10 µM

O=c1[nH]cc(F)c(=O)[nH]1
viability, T/C (compound 0.0316 µM): 98.7% and 96% and 115% | viability, T/C (compound 0.1 µM): 89.9% and 91.2% and 95.8% | viability, T/C (compound 0.316 µM): 86.7% and 97.9% and 89.4% | viability, T/C (compound 1 µM): 89.8% and 116% and 102% | viability, T/C (compound 3.16 µM): 80.7% and 102% and 94.3% | viability, T/C (compound 10 µM): 89.4% and 89% and 84.3% | IC50 (curve of compound): > 10 µM
